This is an account of results in US20070123546A1, “2-amino-7,8-dihydro-6H-pyrido[4,3-d]pyrimidin-5-ones” (Chiron Corporation, priority 2005, published 2007).

This assay deals with His-tagged N-terminal ATP binding domain (amino acid residues 9-236) of HSP90α (Homo sapiens, UniProt P07900). The experiment in a line: HSP90 inhibitor binding potency: TRF competition binding assay. The note with it: competition with biotinylated radicicol. The essentials: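 His-tagged HSP90α N-domain (residues 9-236) incubated 2 h at room temperature with biotinylated radicicol and increasing compound in 50 mM HEPES, 6 mM MgCl2, 20 mM KCl, 0.1% BSA. Bound tracer captured on streptavidin plates, detected with europium anti-His antibody by time-resolved fluorescence; IC50 derived.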

Take `COc1ncccc1-c1cc(F)ccc1[C@H]1Cc2nc(N)nc(C)c2C(=O)N1CC(C)C` [Compound 158, (R)-2-Amino-7-[4-fluoro-2-(2-methoxy-pyridin-3-yl)-phenyl]-isobutyl-4-methyl-7,8-dihydro-6H-pyrido[4,3-d]pyrimidin-5-one]: for the setting “Table 3”, the IC50 was less than 10 µM.

`COc1ccncc1-c1cc(F)ccc1[C@H]1Cc2nc(N)nc(C)c2C(=O)N1CC(C)C` [Compound 159, (R)-2-Amino-7-[4-fluoro-2-(4-methoxy-pyridin-3-yl)-phenyl]-6-isobutyl-4-methyl-7,8-dihydro-6H-pyrido[4,3-d]pyrimidin-5-one] returned an IC50 (Table 3) of more than 10 µM.

Molecule `COc1cccc(-c2cc(F)ccc2[C@H]2Cc3nc(N)nc(C)c3C(=O)N2Cc2ccc(F)cc2)n1` [Compound 160, (R)-2-Amino-6-(4-fluoro-benzyl)-7-[4-fluoro-2-(6-methoxy-pyridin-2-yl)-phenyl]-4-methyl-7,8-dihydro-6H-pyrido[4,3-d]pyrimidin-5-one] returned a 50% inhibitory concentration (IC50) (Table 3) of less than 10 µM.

For the molecule `COc1cncc(-c2cc(F)ccc2[C@H]2Cc3nc(N)nc(C)c3C(=O)N2Cc2ccc(F)cc2)n1` [Compound 161, (R)-2-Amino-6-(4-fluoro-benzyl)-7-[4-fluoro-2-(6-methoxy-pyrazin-2-yl)-phenyl]-4-methyl-7,8-dihydro-6H-pyrido[4,3-d]pyrimidin-5-one], the IC50 (Table 3) is less than 10 µM.

As to `COc1nc(-c2cc(F)ccc2[C@H]2Cc3nc(N)nc(C)c3C(=O)N2Cc2ccc(F)cc2)cnc1N` [Compound 162, (R)-2-Amino-7-[2-(5-amino-6-methoxy-pyrazin-2-yl)-4-fluoro-phenyl]-6-(4-fluoro-benzyl)-4-methyl-7,8-dihydro-6H-pyrido[4,3-d]pyrimidin-5-one], where the note is “Table 3”, the IC50 is less than 10 µM.

The molecule `COc1nc(-c2cc(F)ccc2[C@H]2Cc3nc(N)nc(C)c3C(=O)N2CC(C)C)cnc1N` [Compound 163, (R)-2-Amino-7-[2-(5-amino-6-methoxy-pyrazin-2-yl)-4-fluoro-phenyl]-6-isobutyl-4-methyl-7,8-dihydro-6H-pyrido[4,3-d]pyrimidin-5-one] came in with an IC50 (Table 3) of less than 10 µM.

Under “Table 3”, `COc1cncc(-c2cc(F)ccc2[C@H]2Cc3nc(N)nc(C)c3C(=O)N2Cc2cccnc2)n1` [Compound 164, (R)-2-Amino-7-[4-fluoro-2-(6-methoxy-pyrazin-2-yl)-phenyl]-4-methyl-6-pyridin-3-ylmethyl-7,8-dihydro-6H-pyrido[4,3-d]pyrimidin-5-one] returned an IC50 of less than 10 µM.

Under “Table 3”, `Cc1nc(N)nc2c1C(=O)N(CCCNC(=O)OC(C)(C)C)[C@@H](c1ccc(F)cc1Br)C2` [Compound 165, {3-[(R)-2-Amino-7-(2-bromo-4-fluoro-phenyl)-4-methyl-5-oxo-7,8-dihydro-5H-pyrido[4,3-d]pyrimidm-6-yl]-propyl}-carbamic acid tert-butyl ester] had an IC50 of more than 10 µM.

Under “Table 3”, `Cc1nc(N)nc2c1C(=O)N(CCCN)[C@@H](c1ccc(F)cc1Br)C2` [Compound 166, (R)-2-Amino-6-(3-amino-propyl)-7-(2-bromo-4-fluoro-phenyl)-4-methyl-7,8-dihydro-6H-pyrido[4,3-d]pyrimidin-5-one] registered an IC50 of more than 10 µM.

Regarding `Cc1nc(N)nc2c1C(=O)N(CCCNC(=O)OC(C)(C)C)[C@@H](c1ccc(F)cc1-c1cccnc1)C2` [Compound 167, {3-[(R)-2-Amino-7-(4-fluoro-2-pyridin-3-yl-phenyl)-4-methyl-5-oxo-7,8-dihydro-5H-pyrido[4,3-d]pyrimidin-6-yl]-propyl}-carbamic acid tert-butyl ester], the IC50 (Table 3) was less than 10 µM.

Turning to `Cc1nc(N)nc2c1C(=O)N(CCCN)[C@@H](c1ccc(F)cc1-c1cccnc1)C2` [Compound 168, (R)-2-Amino-6-(3-amino-pnlpropyl)-7-(4-fluoro-2-pyridin-3-yl-phenyl)-4-methyl-7,8-dihydro-6H-pyrido[4,3-d]pyrimidin-5-one], the 50% inhibitory concentration (IC50) (Table 3) was less than 10 µM.

Consider `Cc1nc(N)nc2c1C(=O)N(CCCNC(=O)OC(C)(C)C)[C@@H](c1ccc(F)cc1-c1cccnc1F)C2` [Compound 169, (3-{(R)-2-Amino-7-[4-fluoro-2-(2-fluoro-pyridin-3-yl)-phenyl]-4-methyl-5-oxo-7,8-dihydro-5H-pyrido[4,3-d]pyrimidin-6-yl}-propyl)-carbamic acid tert-butyl ester], for which the IC50 (Table 3) is less than 10 µM.

Molecule `Cc1nc(N)nc2c1C(=O)N(CCCN)[C@@H](c1ccc(F)cc1-c1cccnc1F)C2` [Compound 170, (R)-2-Amino-6-(3-amino-propyl)-7-[4-fluoro-2-(2-fluoro-pyridin-3-yl)-phenyl]-4-methyl-7,8-dihydro-6H-pyrido[4,3-d]pyrimidin-5-one] registered an IC50 (Table 3) of more than 10 µM.

For `COc1cncc(-c2cc(F)ccc2[C@H]2Cc3nc(N)nc(C)c3C(=O)N2CCCN)n1` [Compound 171, (R)-2-Amino-6-(3-amino-propyl)-7-[4-fluoro-2-(6-methoxy-pyrazin-2-yl)-phenyl]-4-methyl-7,8-dihydro-6H-pyrido[4,3-d]pyrimidin-5-one], the IC50 (Table 3) was less than 10 µM.

Turning to `COc1cccc(-c2scnc2[C@H]2Cc3nc(N)nc(C)c3C(=O)N2)n1` [Compound 172, (R)-2-Amino-7-[5-(6-methoxy-pyridin-2-yl)-thiazol-4-yl]-4-methyl-7,8-dihydro-6H-pyrido[4,3-d]pyrimidin-5-one], for the setting “Table 3”, the IC50 is less than 10 µM.

For the molecule `CCOc1nc(-c2cc(F)ccc2[C@H]2Cc3nc(N)nc(C)c3C(=O)N2)ncc1F` [Compound 174, (R)-2-Amino-7-[2-(4-ethoxy-5-fluoro-pyrunidin-2-yl)-4-fluoro-phenyl]-4-methyl-7,8-dihydro-6H-pyrido[4,3-d]pyrimidin-5-one], the IC50 (Table 4) was less than 10 µM.

Under “Table 4”, `COc1cncc(-c2cc(F)ccc2[C@H]2Cc3nc(N)ncc3C(=O)N2)n1` [Compound 175, (R)-2-Amino-7-[4-fluoro-2-(6-methoxy-pyrazin-2-yl)-phenyl]-7,8-dihydro-6H-pyrido[4,3-d]pyrimidin-5-one] registered an IC50 of less than 10 µM.

For `COc1ccccc1-c1cc(F)ccc1[C@H]1Cc2nc(N)ncc2C(=O)N1` [Compound 176, (R)-2-Amino-7-(5-fluoro-2′-methoxy-biphenyl-2-yl)-7,8-dihydro-6H-pyrido[4,3-d]pyrimidm-5-one], where the note is “Table 4”, the IC50 is less than 10 µM.

For `COc1ccc(F)cc1-c1cc(F)ccc1[C@H]1Cc2nc(N)ncc2C(=O)N1` [Compound 177, (R)-2-Amino-7-(5,5′-difluoro-2′-methoxy-biphenyl-2-yl)-7,8-dihydro-6H-pyrido[4,3-d]pyrimidin-5-one], the IC50 (Table 4) is less than 10 µM.

As to `COc1cc(F)ccc1-c1cc(F)ccc1[C@H]1Cc2nc(N)ncc2C(=O)N1` [Compound 178], the IC50 (Table 4) is less than 10 µM.

Under “Table 4”, `COc1ccc(-c2cc(F)ccc2[C@H]2Cc3nc(N)ncc3C(=O)N2)cc1OC` [Compound 179, (R)-2-Amino-7-(5-fluoro-3′,4′-dimethoxy-biphenyl-2-yl)-7,8-dihydro-6H-pyrido[4,3-d]pyrimidin-5-one] displayed an IC50 not below 10 µM.

`Cc1cccc(-c2cc(F)ccc2[C@H]2Cc3nc(N)ncc3C(=O)N2)c1` [Compound 180, (R)-2-Amino-7-(5-fluoro-3′-methyl-biphenyl-2-yl)-7,8-dihydro-6H-pyrido[4,3-d]pyrimidin-5-one] registered an IC50 (Table 4) of less than 10 µM.

Consider `Cc1ccccc1-c1cc(F)ccc1[C@H]1Cc2nc(N)ncc2C(=O)N1` [Compound 181, (R)-2-Amino-7-(5-fluoro-2′-methyl-biphenyl-2-yl)-7,8-dihydro-6H-pyrido[4,3-d]pyrimidin-5-one], for which the IC50 (Table 4) is less than 10 µM.

By IC50 is commonly meant the concentration that inhibits the measured activity by half. Low readings indicate greater potency, high ones weaker potency.
